# From patent US8580814B2, “Methods of using (+)-1,4-dihydro-7-[(3S,4S)-3-methoxy-4-(methylamino)-1-pyrrolidinyl]-4- oxo-1-(2-thiazolyl)-1,8-naphthyridine-3-carboxylic acid for treatment of cancer” (priority 2006, dated 2013)
# Marks after values point to notes of the source that are not given here.
# Experiments:
# [1] = tested on: CCRF-CEM acute lymphoblastic leukemia tumor; assay: CCRF-CEM xenograft model; type: in vivo, nude mice
# Method: CCRF-CEM acute lymphoblastic leukemia tumor lobes of 2-3 mm square were transplanted subcutaneously into nude mice. Tumors were allowed to grow to approximately 8-20 mm in diameter. […] Acceptable toxicity was defined as a mean group weight loss of 30% or less and not more than one toxic death among 6 treated animals. Anti-tumor activities of the drugs were assessed 20 or 21 days after the start of administration. Table 14 provides data for tumor inhibition (TI) and survival rate in the CCRF-CEM and LM3-Jck xenograft models.
# [2] = tested on: LM3-Jck human malignant lymphoma tumor; assay: LM3-Jck xenograft model; type: in vivo, nude mice
# Method: LM3-Jck human malignant lymphoma tumor lobes (2-3 mm square) were transplanted subcutaneously into nude mice. Tumors were allowed to grow to approximately 7-14 mm in diameter. […] Acceptable toxicity was defined as a mean group weight loss of 30% or less and not more than one toxic death among 6 treated animals. Anti-tumor activities of the drugs were assessed 21 days after the start of administration.
# [3] = tested on: CCRF-CEM (lymphoblastic leukemia); assay: MTT cell viability assay, leukemia cells; type: cell-based; conditions: Homo sapiens, MTT after 72 hours
# Method: (§1) The following cell lines were used in this assay: HL-60 (promyelocytic leukemia); Jurkat (T cell leukemia); CCRF-CEM (lymphoblastic leukemia); CEM/C2 (camptothecan resistant derivative of CCRF-CEM). Cells were seeded in 96 wells plates at 3000 cells per well and incubated for 16 hours. […] Titrations were diluted 1:100 in media to achieve final compound concentrations. The 96 well plates were aspirated and compound dilutions in media were added ([…]). MTT analysis was carried out after 72 hours of incubation at 37° C. Briefly, […] of MTT solution was added to each well. Cells were incubated at 37° C. for 1-2 hours. […] Plates were read on a spectromax machine with an absorbance measurement at […]. IC50's were calculated (data provided in Table 13) using regression analysis within GraphPad Prism.
# [4] = tested on: HL-60 (promyelocytic leukemia); assay: MTT cell viability assay, leukemia cells; type: cell-based; conditions: Homo sapiens; HL-60, MTT after 72 hours
# Method: as §1
# [5] = tested on: CEM/C2 (camptothecan resistant derivative of CCRF-CEM); assay: MTT cell viability assay, leukemia cells; type: cell-based; conditions: Homo sapiens; CEM/C2, MTT after 72 hours
# Method: as §1
# [6] = tested on: MO59J (DNAPKcs(−/−)) vs MO59K (DNAPKCs(+/+)); assay: MTT assay, sensitization (DNAPKcs(−/−)); type: cell-based; conditions: MO59J (DNAPKcs(−/−)) vs MO59K (DNAPKCs(+/+)); compound 72 hours
# Method: (§2) Cells were then incubated with 5% MTT for 1-2 hours and lysed. MTT was colorimetrically read at 570 nm and EC50's were determined using linear regression analysis.
# (§3) Sensitization was carried out with various chemical treatments.
# [7] = tested on: HCT-116 cells with 6 fold lower ATR levels; assay: MTT assay, sensitization (ATRFLOX); type: cell-based; conditions: compound 72 hours
# Method: as §2, §3
# [8] = tested on: HCT-116 cells treated with 2 mM caffeine; assay: MTT assay, sensitization (caffeine); type: cell-based; conditions: 2 mM caffeine pre-treated for 16 hours, compound 72 hours
# Method: as §2, §3
smiles,measurement,setting,value
"CCc1c2c(nc3ccc(OC(=O)N4CCC(N5CCCCC5)CC4)cc13)-c1cc3c(c(=O)n1C2)COC(=O)[C@]3(O)CC [Irinotecan, irinotecan, reference compound]",IR (%) (tumor inhibition rate),"[1]; q4d x3, IV, 100 mg/kg",99.7* %
same,Survival Ratio,"[1]; q4d x3, IV, 100 mg/kg",5/6
same,IR (%) (tumor inhibition rate),"[2]; LM3-JcK, q4d x3, IV, 100 mg/kg",97.7* %
same,Survival Ratio,"[2]; LM3-JcK, q4d x3, IV, 100 mg/kg",6/6
"COc1cc([C@@H]2c3cc4c(cc3[C@@H](O[C@@H]3O[C@@H]5CO[C@@H](C)O[C@H]5[C@H](O)[C@H]3O)[C@H]3COC(=O)[C@H]23)OCO4)cc(OC)c1O [Etoposide, etoposide, reference compound]",IR (%) (tumor inhibition rate),"[1]; qd X 5, IV, 12 mg/kg",28.3%
same,IR (%) (tumor inhibition rate),"[2]; LM3-JcK, qd X 5, IV, 12 mg/kg",3.0%
"COc1cccc2c1C(=O)c1c(O)c3c(c(O)c1C2=O)C[C@@](O)(C(=O)CO)C[C@@H]3O[C@H]1C[C@H](N)[C@H](O)[C@H](C)O1 [Doxorubicin, doxorubicin, reference compound]",IR (%) (tumor inhibition rate),"[1]; q7d X3, IV, 12 mg/kg",50.3* %
same,IR (%) (tumor inhibition rate),"[2]; LM3-JcK, q7d X3, IV, 12 mg/kg",57.2* %
same,Survival Ratio,"[2]; nude, mouse, in vivo, iv, 12 mg/kg, 21 days",6/6
same,IC50,[3],0.003 µg/mL
same,IC50,[4],0.024 µg/mL
same,IC50,[5],0.017 µg/mL
"CC[C@@]1(O)C(=O)OCc2c1cc1n(c2=O)Cc2cc3ccccc3nc2-1 [Camptothecin, reference compound]","Sensitization, fold decrease in the EC50 for cytotoxicity (MTT): DNAPKcs(−/−)",[6],0.7 fold
same,"Sensitization, fold decrease in the EC50 for cytotoxicity (MTT): ATRFLOX",[7],5 fold
same,"Sensitization, fold decrease in the EC50 for cytotoxicity (MTT): Caffeine",[8],6 fold
